Measurements taken from paper PMC10794345, “Analysis of vascular disruption in zebrafish embryos as an endpoint to predict developmental toxicity” (Archives of Toxicology, 2023).
Read-outs that look alike come from different tables or passages of the source.

Columns and labels:
[1] = tested on: zebrafish embryos (wild-type strain OBI/WIK); test: Morphological features and heart rate by automated imaging (VAST/FishInspector) at 96 hpf; format: in vivo, zebrafish (D. rerio); conditions: embryos exposed beginning at 3 hpf; not observed when exposure started at 24 hpf
Protocol: Automated imaging of zebrafish developmental phenotypes was conducted with the VAST BioImager (Union Biometrica, Gees, Belgium (Pardo-Martin et al. [2010]; Pulak [2016])) equipped with a large particle sampler (LP sampler, Union Biometrica). Lateral and dorsoventral images were obtained at 10 µm resolution at 96 hpf. Prior to imaging, all embryos were anesthetized by adding 20 µl tricaine solution ([…] tricaine, TRIS 26 mM, pH 7.5 ± 0.1) to each well of the microplate. Images were processed with an amended version (1.70, available via https://codebase.helmholtz.cloud/ufz/tb3-cite/biotox/FishInspector) of the FishInspector imaging software (Teixidó et al. [2019]). The FishInspector software allows to automatically annotate morphological features including body contour, eye, lower mouth tip, pericard, otoliths, notochord, swimbladder, and yolk and to calculate diverse metrics such as feature length, size, curvature indices, or angle between feature-connecting lines. In contrast to the previously published version, FishInspector 1.70 detects morphological features based on a deep learning approach using the Matlab Neural Network Toolbox and Matlab Image Processing Toolbox (Mathworks, Natick, […]). In addition, metric calculation was included into the software, and meta information such as test compound, exposure window or test concentration was associated to each image using a microplate layout file. To facilitate training of the models, two additional programs were generated in Matlab including FishTrainer 0.9 (for training of semantic segmentation models of structural features) and FishClassificator 0.9 (for training of position classes to be used in automated flipping of images) available via same repository as FishInspector software. For image training, image size was adjusted to 450 × 300 pixel to reduce computing time. This resolution was sufficient to detect the selected features (data not shown). For training of the deep learning models, approximately 3000 previously annotated images (Teixidó et al. [2022]) were used. The automated annotations were corrected by the user in the event that they were not adequately detecting visible structures. User-bias was avoided by a blinded assessment of images.
FishInspector provided a JSON file corresponding to each image file containing the coordinates of all features and the applied smoothing factor. All images and videos used for this publication can be found at the BioImage Archive S-BIAD954 (https://www.ebi.ac.uk/biostudies/bioimages/studies/S-BIAD954). For each image, a csv file was generated containing calculated metrics. The software automatically provides a summary table containing metrics r of individual embryos. […] The analyzed file includes endpoint names based on the FishInspector software. […]

[2] = tested on: zebrafish embryos (wild-type strain OBI/WIK); test: ISV inhibition (angiogenesis) by video subtraction in wildtype zebrafish embryos; format: in vivo, zebrafish (D. rerio)
Protocol: A wild-type adult zebrafish strain (D. rerio, strain OBI/WIK, generation F3), originating from an in-house cross of zebrafish strains UFZ-OBI and WIK, was used for all experiments. The Tg(kdr:EGFP) strain was kindly provided by the University of Jena. Fish were fed twice daily with dry food (SDS-400, Special Diets Services, Essex England) and once daily with Artemia sp. […] Spawning trays were inserted 4–6 h before the end of the light cycle. The following day, spawning was initiated by the onset of light and eggs were collected within 1 h. Exposure in all experiment was ceased at 96 hpf.
Exposure was conducted in rectangular 96-well microplates (Clear Polystyrene, flat bottom, Uniplate, Whatman, GE Healthcare) covered by a lid with a test volume of 400 µL of exposure media. For each replicate one embryo per well and 16 wells per concentration were assessed. Experiments were performed with at least two replicates on independent days and breeding.
To determine the number of ISVs in the trunk region, high-resolution images of 96 hpf-old zebrafish embryos were recorded using a Leica DM6B-Z microscope (Leica, Wetzlar, Germany) attached to the VAST imaging system, and a camera (Leica DFC9000 sCMOS, objective: HC APO L U-V-I 20x/0.50 WATER UV). A series of 20 images with a frame rate of 20 images per second and a 2 × 2 pixel binning was recorded in autofocus mode for each embryo.
A series of MATLAB scripts (Supplement File ‘Workflow 3.m’ and ‘Workflow 4.m’) was used to convert the image series into a video and to visualize the blood vessel by applying a video subtraction approach (Figure SI1). Briefly, each video frame was subtracted from the average image of the whole image sequence and converted to a binary image by applying a Gaussian blur (σ = 5) and a threshold of 0.025 to obtain optimal contrast in binary images. Subsequently, the sum of all binary images was calculated. Due to movement of the blood cells the subtraction approach removed all parts from the image which were not moving resulting in an image of the blood vessels. This binary image of the blood vessel network in the zebrafish embryo tail was then processed with the FishInspector annotation software (version 1.70). […] The number of ISVs was obtained by application of a KNIME workflow to FishInspector annotation files. Subsequently concentration–response analysis was conducted using a KNIME workflow. The coefficient of variation (CV) of controls was calculated for both the subtraction and the fluorescence-based method by dividing the standard deviation of individual embryos with the control mean: CVControl=SD/Mean.
The assessment of lethality and morphological features was based on the percentage of embryos affected. Therefore, morphological endpoints were dichotomized, i.e. feature metrics were converted to the percentage of embryos deviating from controls. An embryo was considered to deviate when it was outside 1.5-fold of the standard deviation range of the mean of the control group. The control mean was determined by pooling control embryos across all experiments (n = 160) (available at git.ufz.de). For heart rate and angiogenesis (number of ISVs) the analysis was based on normalized values, i.e. for each experiment the values of the treatment were divided by the control value. The experiments were designed to calculate effect concentrations based on modelled curve fits. Different concentrations were used in at least two independent replicates, with means of each replicate based on the exposure of 16 different embryos per concentrations. Effect concentration were only modeled when three conditions were met. […] (2) The Akaike information criterion (AIC) for the log-logistic model was lower than the AIC for a linear model with slope 0 (lower p values for the letter would indicate that there is no trend in the data).

[3] = Danio rerio, 24–96 hpf exposure, ± 95% confidence intervals, read-out: IC50 of ISV inhibition

Row | SMILES | Swim bladder inflation (in words) [1] | IC50 ([2]; 3–96 hpf exposure, ± 95% confidence intervals, read-out: IC50 of ISV inhibition) [nM] | IC50 ([2]; 24–96 hpf exposure, ± 95% confidence intervals, read-out: IC50 of ISV inhibition) [nM] | IC50 ([2]; exposure window not stated at this place, read-out: IC50 / loss of ISV number, current study as restated in discussion) [nM] | IC50 [2, 3] [nM] | IC50 ([2]; Danio rerio, 3–96 hpf exposure, ± 95% confidence intervals, read-out: IC50 of ISV inhibition) [nM]
1 | CN(C)c1ccc(C=C2C(=O)Nc3ccccc32)cc1 [SU4312] | impaired swim bladder inflation | 2300 ± 420 | 2590 ± 600 | 90 |  | 
2 | Cc1cc(C)c(/C=C2\C(=O)Nc3ccccc32)[nH]1 [SU5416] | impaired swim bladder inflation |  |  |  | 2100 ± 350 | 
3 | CNC(=O)c1cc(Oc2ccc(NC(=O)Nc3ccc(Cl)c(C(F)(F)F)c3)cc2)ccn1 [Sorafenib] | impaired swim bladder inflation |  |  |  | 1360 ± 240 | 1370 ± 100
